According to PubChem BioAssay AID328 (DTP/NCI, 2004):
Inconclusive results and toxic doses are left out. The calls were made as follows: active = survival T/C of 150% or more; inactive = T/C below 125% in these data.

Tested on: BDF1 mice, P388 leukemia ip, median survival T/C
Experiment: NCI In Vivo Anticancer Drug Screen. Data for tumor model P388 Leukemia (intraperitoneal) in B6D2F1 (BDF1) mice
Conditions: endpoint: median survival time, higher = longer survival
How it was run: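 Read-out is survival of treated animals expressed relative to the vehicle group, as a T/C ratio.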

[1] = dose: 100.0 mg/kg/injection, schedule: Q04DX003 (ip), vehicle: Klucel (hydroxypropylcellulose) (HPC)
[2] = dose: 200.0 mg/kg/injection, schedule: Q04DX003 (ip), vehicle: Klucel (hydroxypropylcellulose) (HPC)
[3] = dose: 400.0 mg/kg/injection, schedule: Q04DX003 (ip), vehicle: Klucel (hydroxypropylcellulose) (HPC)
[4] = dose: 100.0 mg/kg/injection, schedule: Q01DX009 (ip), vehicle: Klucel (hydroxypropylcellulose) (HPC)
[5] = dose: 200.0 mg/kg/injection, schedule: Q01DX009 (ip), vehicle: Klucel (hydroxypropylcellulose) (HPC)
[6] = dose: 100.0 mg/kg/injection, schedule: Q01DX009 (ip), vehicle: saline with Tween-80
[7] = dose: 100.0 mg/kg/injection, schedule: Q04DX003 (ip), vehicle: saline with Tween-80
[8] = dose: 200.0 mg/kg/injection, schedule: Q01DX009 (ip), vehicle: saline with Tween-80
[9] = dose: 200.0 mg/kg/injection, schedule: Q04DX003 (ip), vehicle: saline with Tween-80
[10] = dose: 400.0 mg/kg/injection, schedule: Q04DX003 (ip), vehicle: saline with Tween-80
[11] = dose: 25.0 mg/kg/injection, schedule: Q01DX009 (ip), vehicle: saline with Tween-80
[12] = dose: 50.0 mg/kg/injection, schedule: Q01DX009 (ip), vehicle: saline with Tween-80
[13] = dose: 100.0 mg/kg/injection, schedule: Q01DX009 (ip), vehicle: saline
[14] = dose: 400.0 mg/kg/injection, schedule: Q01DX009 (ip), vehicle: saline

Measured: T/C

Nc1n[nH]c(=S)n1-c1ccc(Cl)cc1
inactive: [1] 100 % of control | [2] 104 % of control | [3] 100 % of control

C[CH2][Sn]([CH2]C)([CH2]C)[NH]S(=O)(=O)c1ccc(C)cc1
inactive: dose: 0.39 mg/kg/injection, schedule: Q01DX009 (ip), vehicle: Klucel (hydroxypropylcellulose) (HPC) 100 % of control | dose: 0.78 mg/kg/injection, schedule: Q01DX009 (ip), vehicle: Klucel (hydroxypropylcellulose) (HPC) 115 % of control | dose: 3.12 mg/kg/injection, schedule: Q01DX001 (ip), vehicle: Klucel (hydroxypropylcellulose) (HPC) 100 % of control | dose: 6.25 mg/kg/injection, schedule: Q01DX001 (ip), vehicle: Klucel (hydroxypropylcellulose) (HPC) 90 % of control | dose: 12.5 mg/kg/injection, schedule: Q01DX001 (ip), vehicle: Klucel (hydroxypropylcellulose) (HPC) 90 % of control | dose: 18.0 mg/kg/injection, schedule: Q01DX001 (ip), vehicle: Klucel (hydroxypropylcellulose) (HPC) 104 % of control

C#CCCOC(=O)Nc1ccccc1
inactive: [4] 100 % of control | [5] 90 % of control | dose: 400.0 mg/kg/injection, schedule: Q01DX009 (ip), vehicle: Klucel (hydroxypropylcellulose) (HPC) 90 % of control

C=CC12COC(=O)C(=C)C1C(O)C1C(=C)C(=O)OC1C2 (configuration not stated)
inactive: dose: 3.75 mg/kg/injection, schedule: Q01DX009 (ip), vehicle: saline + alcohol 113 % of control | dose: 15.0 mg/kg/injection, schedule: Q01DX009 (ip), vehicle: saline + alcohol 90 % of control

N#C/C1=C(\N)CCCOCCCOCCCOCCCOCCCOCC1
inactive: dose: 100.0 mg/kg/injection, schedule: Q04DX003 (ip), vehicle: saline 97 % of control | dose: 200.0 mg/kg/injection, schedule: Q04DX003 (ip), vehicle: saline 92 % of control

CC(=O)Nc1cc2c(cc1[N+](=O)[O-])-c1ccccc1C2O (configuration not stated)
inactive: [6] 100 % of control | [7] 100 % of control | [8] 90 % of control | [9] 104 % of control | [10] 104 % of control

CC(=O)OCC(=O)[C@@]1(O)CC[C@H]2[C@@H]3CCC4=CC(=O)C=C[C@]4(C)[C@H]3C(=O)C[C@@]21C
inactive: [11] 109 % of control | [12] 122 % of control | dose: 63.75 mg/kg/injection, schedule: Q01DX009 (ip), vehicle: Klucel (hydroxypropylcellulose) (HPC) 113 % of control | [6] 118 % of control | [1] 100 % of control | dose: 127.5 mg/kg/injection, schedule: Q01DX009 (ip), vehicle: Klucel (hydroxypropylcellulose) (HPC) 122 % of control | [2] 104 % of control | dose: 255.0 mg/kg/injection, schedule: Q01DX009 (ip), vehicle: Klucel (hydroxypropylcellulose) (HPC) 100 % of control | [3] 104 % of control

CCC[N+](C)(C)CCCCOCCCC[N+](C)(C)CCC
inactive: dose: 3.0 mg/kg/injection, schedule: Q01DX009 (ip), vehicle: saline 88 % of control | dose: 3.0 mg/kg/injection, schedule: Q04DX003 (ip), vehicle: saline 100 % of control | dose: 6.0 mg/kg/injection, schedule: Q01DX009 (ip), vehicle: saline 92 % of control | dose: 6.0 mg/kg/injection, schedule: Q04DX003 (ip), vehicle: saline 116 % of control | dose: 6.25 mg/kg/injection, schedule: Q04DX003 (ip), vehicle: saline 113 % of control | dose: 12.0 mg/kg/injection, schedule: Q01DX009 (ip), vehicle: saline 96 % of control | dose: 12.0 mg/kg/injection, schedule: Q04DX003 (ip), vehicle: saline 100 % of control | dose: 12.5 mg/kg/injection, schedule: Q04DX003 (ip), vehicle: saline 109 % of control

CC(C)C1(C(=O)NN)OC2(O)CCCCCN2C1=O (configuration not stated)
inactive: [13] 90 % of control | dose: 200.0 mg/kg/injection, schedule: Q01DX009 (ip), vehicle: saline 90 % of control | [14] 100 % of control

O=c1c2oc3ccccc3c2cnn1CO
inactive: [6] 90 % of control | [8] 116 % of control

C=CCCC(=O)OC(C)(C)C
inactive: dose: 12.5 mg/kg/injection, schedule: Q01DX009 (ip), vehicle: water 103 % of control | dose: 25.0 mg/kg/injection, schedule: Q01DX009 (ip), vehicle: saline 109 % of control | dose: 25.0 mg/kg/injection, schedule: Q01DX009 (ip), vehicle: water 100 % of control | dose: 25.0 mg/kg/injection, schedule: Q04DX003 (ip), vehicle: water 106 % of control | dose: 50.0 mg/kg/injection, schedule: Q01DX009 (ip), vehicle: water 100 % of control | dose: 50.0 mg/kg/injection, schedule: Q04DX003 (ip), vehicle: water 116 % of control | [13] 109 % of control | dose: 100.0 mg/kg/injection, schedule: Q04DX003 (ip), vehicle: water 114 % of control | dose: 200.0 mg/kg/injection, schedule: Q04DX003 (ip), vehicle: water 98 % of control | [14] 100 % of control | dose: 400.0 mg/kg/injection, schedule: Q04DX003 (ip), vehicle: water 114 % of control

O=[N+]([O-])c1ccc(S(=O)(=O)Cc2ccccc2)c2c1no[n+]2[O-]
inactive: [11] 116 % of control | [12] 116 % of control

C#CC(C)OCC(C)OC (configuration not stated)
inactive: dose: 12.5 mg/kg/injection, schedule: Q04DX003 (ip), vehicle: saline with Tween-80 118 % of control | dose: 50.0 mg/kg/injection, schedule: Q04DX003 (ip), vehicle: saline with Tween-80 118 % of control

COC1(OC)C2(Cl)CC(=O)C3CC(=O)C3C1(Cl)C(Cl)=C2Cl (configuration not stated)
inactive: dose: 100.0 mg/kg/injection, schedule: Q01DX001 (ip), vehicle: Klucel (hydroxypropylcellulose) (HPC) 103 % of control | dose: 200.0 mg/kg/injection, schedule: Q01DX001 (ip), vehicle: Klucel (hydroxypropylcellulose) (HPC) 107 % of control | dose: 400.0 mg/kg/injection, schedule: Q01DX001 (ip), vehicle: Klucel (hydroxypropylcellulose) (HPC) 96 % of control

COC(=O)C1C(O)C(C)C(O)C(C)(O)C=C(C)C2=C3C(=C(C)C(=O)c4c(O)c(c(C)c(OC(C)=O)c43)NC(=O)C(C)=C/C=C\C(C)(O)C(O)C(C)C1O)OCO2 (configuration not stated)
inactive: dose: 50.0 mg/kg/injection, schedule: Q01DX009 (ip), vehicle: Klucel (hydroxypropylcellulose) (HPC) 119 % of control | [4] 110 % of control | [5] 116 % of control

CC(C)C(Br)C(=O)NCC(=O)NCC(=O)O (configuration not stated)
inactive: [7] 104 % of control | [9] 109 % of control | [10] 100 % of control

O=C(O)c1ccc(O)c(=O)cc1
inactive: dose: 12.5 mg/kg/injection, schedule: Q01DX001 (ip), vehicle: saline with Tween-80 102 % of control

O=C(O)c1cc[c]([Hg][S]c2ncnc3nc[nH]c23)cc1
inactive: dose: 25.0 mg/kg/injection, schedule: Q01DX009 (ip), vehicle: suspension in saline 119 % of control

CC1(C)Oc2cc3oc(C(=O)O)cc(=O)c3cc2-c2ccc(O)cc21
inactive: dose: 100.0 mg/kg/injection, schedule: Q04DX002 (ip), vehicle: saline with Tween-80 119 % of control | dose: 200.0 mg/kg/injection, schedule: Q04DX002 (ip), vehicle: saline with Tween-80 107 % of control | dose: 400.0 mg/kg/injection, schedule: Q04DX002 (ip), vehicle: saline with Tween-80 108 % of control
